According to patent publication US6894185B2, “Substituted chiral allosteric hemoglobin modifiers” (Allós Therapeutics, Inc., priority 1999, dated 2005):
Where “and” joins values, the source holds several entries; their conditions need not be identical. Equal entries are not always repeated.

What was measured:
hemoglobin = biological target: T1, hemoglobin (Homo sapiens, UniProt P68871+P69905); test: In vitro whole blood studies (multi-point tonometry and blood gas analysis); assay type: cell-based; details: for Whole Blood Δp50 mm Hg: Table II; for ΔP50 ± S.D. (P50 effector − P50control) / P50e (P50 value in the presence of the effector): Table VI, 2.5 mM Hb, 5.0 mM effector; for P50e (P50 value in the presence of the effector): single runs, DMSO stock
T1 construct: The whole blood samples were collected in heparinized tubes from healthy volunteers; from tissue; host or cells: human whole blood (heparinized) from healthy volunteers
Description: (§1) Structure-allosteric activity relationships were determined from the synthetic chiral effectors comparing the shift in the oxygen binding curve of Hb solutions using a Hemox-Analyzer. In vitro biological activity testing in the presence of plasma proteins was also performed on selected enantiomers and racemates (multi-point tonometry and blood gas analysis) to screen for candidates with potential clinical use. SAR studies compared the degree in shift in P50 values, i.e., the partial pressure of molecular oxygen necessary to half-saturate hemoglobin. An effector that decreases Hb oxygen affinity increases the P50 value relative to the control. Thus, the activity or potency of each analog could be expressed by the ratio P50 (effector)/P50(control). Tables and II and III summarize the p50 values obtained using human whole blood, while Tables IV and V summarize the P50 and the Hill coefficient values (n50) at half-saturation obtained using Hemox-analyzer. The slope of the log of the oxygen binding curves is known as the Hill coefficient. The Hill coefficient measures the degree of cooperativity in binding for an allosteric protein, the normal range for human blood is 2.7-3.2. Table VI presents the results from the whole blood studies given as a ΔP50 and Hill coefficient (n50) values for the enantiomers and racemates.
The whole blood samples were collected in heparinized tubes from healthy volunteers and stored over ice. The sodium salts of the compounds were prepared as described earlier. A 200 mM stock solution of the effector was prepared in DMSO. A 5.0 mM test solution was prepared from 50 μL of the 200 mM test solution and 1950 μL of whole blood. The blood samples were incubated in IL 237 tonometers (Instrumentation Laboratories, Inc. Lexington, Mass.) for approximately 10-12 min at 37° C. and equilibrated at three separate concentrations of O2 (20%, 40%, and 60%). After equilibration at each concentration of O2, a sample was removed via syringe and aspirated into a IL 1420 Automated Blood Gas Analyzer (Instrumentation Laboratories, Inc. Lexington, Mass.) and a IL 482 and IL 682 Co-oximeter (Instrumentation Laboratories, Inc. Lexington, Mass.) to determine the pH, pCO2, pO2 and the hemoglobin oxygen saturation values (sO2), respectively. The measured values for pO2 and sO2 at each oxygen saturation level were then subjected to a non-linear regression analysis using the program Scientist (Micromath, Salt Lake City, Utah) to calculate the P50 and Hill coefficient values.

[1] = biological target: T2, purified stripped human adult hemoglobin (Homo sapiens, UniProt P68871+P69905); test: Hemoglobin solution oxygen equilibrium studies (HEMOX-analyzer); assay type: biochemical; details: 0.5 mM effector, 100 mM bis-Tris buffer, pH 7.2
T2 construct: using purified stripped human adult hemoglobin as described previously; from tissue

[2] = biological target: T2, purified stripped human adult hemoglobin; test: as above; assay type: biochemical; details: for n50 (Hill coefficient at 50% saturation): n50 control 2.7; for P50e/P50c: ratio to P50 control with no effector (5.0 mmHg)
Description: as §1, with “Tables and II and III summarize the p50 values obtained using human whole blood, while Tables IV and V summarize the P50 and the Hill coefficient values (n50) at half-saturation obtained using Hemox-analyzer.” left out, “2.7-3.2.” for “2.7-3.2. Table VI presents the results from the whole blood studies given as a ΔP50 and Hill coefficient (n50) values for the enantiomers and racemates.”
The effectors were prepared as 10 mM stock solutions in 100 mM NaCl bis-Tris buffer, pH 7.2. After the addition of an excess of NaHCO3, the solution was warmed to 60° C. and stirred for several hours. The solutions were back titrated carefully to pH 7.2 at 25° C. prior to use. Oxygen equilibrium measurements were performed with the HEMOX-analyzer (TCS Medical products, Southampton, Pa.) using purified stripped human adult hemoglobin as described previously. 4 mL of buffer, 100 mM NaCl, 50 mM bis-Tris at pH 7.2, is added to a cuvette in the HEMOX, followed by 200 μL of the 10 mM effector stock solution. Hemoglobin is then added to achieve a final Hb concentration of […] on heme basis. Catalase (20 μg/mL) and 50 mM EDTA were added to limit oxidation of the hemes. […] The saturation of hemoglobin was determined spectrophotometrically with a dual wavelength spectrophotometer (577 nm and 586.2 nm). The solution was stirred constantly during the 45-60 min recordings. The P50 and n50 values were calculated by linear regression analysis from data points comprised between 40 and 60% oxygen saturation.

[3] = Table IV, 0.5 mM effector, pH 7.2
[4] = Table V resolved enantiomers, 0.5 mM effector, pH 7.2

T1 sequence (P69905 2-142 limits assumed): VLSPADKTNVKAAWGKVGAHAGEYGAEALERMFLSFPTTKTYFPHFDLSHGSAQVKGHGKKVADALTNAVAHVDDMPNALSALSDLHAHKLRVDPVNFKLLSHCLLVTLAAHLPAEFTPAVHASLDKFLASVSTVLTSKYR
T1 sequence (P68871 2-147 limits assumed): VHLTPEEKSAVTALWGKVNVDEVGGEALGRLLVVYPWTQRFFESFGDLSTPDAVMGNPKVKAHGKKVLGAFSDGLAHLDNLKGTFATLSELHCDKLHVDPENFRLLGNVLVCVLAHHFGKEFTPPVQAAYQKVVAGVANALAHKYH
T2 sequence (P69905 2-142 limits assumed): as the sequence (P69905 2-142 limits assumed) above
T2 sequence (P68871 2-147 limits assumed): as the sequence (P68871 2-147 limits assumed) above

| SMILES | Whole Blood Δp50 mm Hg (hemoglobin) [mm Hg] | ΔP50 ± S.D. (P50 effector − P50control) (hemoglobin) [mmHg] | P50e (P50 value in the presence of the effector) (hemoglobin) | P50e (oxygen pressure at which Hb is 50% saturated with oxygen in the presence of the effector) ([1]; Table IV) [mmHg] | n50 (Hill coefficient at 50% saturation) [2, 3] | P50e/P50c [2, 3] | P50e (oxygen pressure at which Hb is 50% saturated with oxygen in the presence of the effector) ([1]; Table V resolved enantiomers) [mmHg] | n50 (Hill coefficient at 50% saturation) [2, 4] | P50e/P50c ([2]; Table V resolved enantiomers) |
| --- | --- | --- | --- | --- | --- | --- | --- | --- | --- |
| Cc1cc(C)cc(NC(=O)Cc2ccc(OC3(C(=O)O)CCCC3C)cc2)c1 (racemic) [Compound 1, 1-[4-[[(3,5-dimethylanilino)carbonyl]methyl]phenoxy]-2-methylcyclopentane carboxylic acid] | 45.4 | 40.1 ± 0.9 | 66 mmHg and 67.2 mmHg | 22 | 2.3 | 4.3 |  |  |  |
| Cc1cc(C)cc(NC(=O)Cc2ccc(OC(C)C(=O)O)cc2)c1 (racemic) [Compound 18, 2-[4-[[(3,5-dimethylanilino)carbonyl]methyl]phenoxy]-propionic acid] |  | 18.2 ± 2.6 | 47.2 mmHg and 43.5 mmHg | 9.3 | 2.6 | 1.9 |  |  |  |
| CCC(Oc1ccc(CC(=O)Nc2cc(C)cc(C)c2)cc1)C(=O)O (racemic) [Compound 20, 2-[4-[[(3,5-dimethylanilino)carbonyl]methyl]phenoxy]-butanoic acid] |  |  |  | 13 | 2.7 | 2.6 |  |  |  |
| Cc1cc(C)cc(NC(=O)Cc2ccc(OC(C)C(=O)O)cc2)c1 (single isomer, unassigned; (+)) [(+) 18, (+)-2-[4-[[(3,5-dimethylanilino)carbonyl]methyl]phenoxy]-propionic acid] |  | 20.7 ± 0.7 | 47.4 mmHg and 48.7 mmHg |  |  |  | 9.8 | 2.6 | 2 |
| CCC(Oc1ccc(CC(=O)Nc2cc(C)cc(C)c2)cc1)C(=O)O (single isomer, unassigned; (+)) [(+) 20] |  |  |  |  |  |  | 18 | 2.7 | 3.6 |
| Cc1cc(C)cc(NC(=O)Cc2ccc(OC(C)C(=O)O)cc2)c1 (single isomer, unassigned; (-)) [(−) 18, (−)-2-[4-[[(3,5-dimethylanilino)carbonyl]methyl]phenoxy]-propionic acid] |  | 12.3 ± 0.6 | 39.7 mmHg and 40.5 mmHg |  |  |  | 6.6 | 2.5 | 1.3 |
| CCC(Oc1ccc(CC(=O)Nc2cc(C)cc(C)c2)cc1)C(=O)O (single isomer, unassigned; (-)) [(−) 20] |  |  |  |  |  |  | 9.8 | 2.8 | 2 |
| Cc1cc(C)cc(NC(=O)Cc2ccc(OC3(C(=O)O)CCOC3C)cc2)c1 (stereo not shown) [Compound 2, 3-[4-[[(3,5-dimethylanifino)carbonyl]methyl]phenoxy]-2-methyltetrahydro-3-furan carboxylic acid] | 15.2 |  |  | 7.6 | 2.4 | 1.5 |  |  |  |
| Cc1cc(C)cc(NC(=O)Cc2ccc(OC3(C(=O)O)CCC(C)C3)cc2)c1 (stereo not shown) [Compound 3] | 20.3 |  |  | 13 | 2.5 | 2.6 |  |  |  |
| Cc1cc(C)cc(NC(=O)Cc2ccc(OC3(C(=O)O)CCOCC3)cc2)c1 [Compound 4, 4-[4-[[(3,5-dimethylanilino)carbonyl]methyl]phenoxy]tetrahydro-2H-4-pyrancarboxylic acid] | 17.8 |  |  | 7.6 | 2.4 | 1.5 |  |  |  |
| CC1CCC(Oc2ccc(CC(=O)Nc3ccc4c(c3)CCC4)cc2)(C(=O)O)C1 (stereo not shown) [Compound 5] | 12.7 |  |  | 13 | 2.6 | 2.5 |  |  |  |
| CCCC(C)(Oc1ccc(CC(=O)Nc2cc(C)cc(C)c2)cc1)C(=O)O (stereo not shown) [Compound 6, 2-[4-[[(3,5-dimethylanilino)carbonyl]methyl]phenoxy]-2-methylpentanoic acid] | 25.6 |  |  | 12 | 2.7 | 2.3 |  |  |  |
| CC1CCCC1(Oc1ccc(CC(=O)Nc2ccc3c(c2)CCC3)cc1)C(=O)O (stereo not shown) [Compound 7] | 25.0 |  |  | 14 | 2.6 | 2.8 |  |  |  |
| Cc1cc(Cl)cc(NC(=O)Cc2ccc(OC3(C(=O)O)CCCC3C)cc2)c1 (stereo not shown) [Compound 8, 1-[4-[[(3-chloro-5-methylanilino)carbonyl]methyl]phenoxy]-2-methylcyclopentane carboxylic acid] | 25 |  |  | 22 | 2.4 | 4.4 |  |  |  |
| Cc1cc(C)cc(NC(=O)Cc2ccc(OC(F)C(=O)O)cc2)c1 (stereo not shown) [Compound 19, 2-[4-[[3,5-dimethylanilino)carbonyl]methyl]phenoxy-2-fluoroacetic acid] |  |  |  | 5.9 | 2.5 | 1.2 |  |  |  |
| CCC(C)(Oc1ccc(CC(=O)Nc2cc(C)cc(C)c2)cc1)C(=O)O (stereo not shown) [Compound 21, 2-[4-[[(3,5-dimethylanilino)carbonyl]methyl]phenoxy]-2-methylbutanoic acid] |  |  |  | 13 | 2.4 | 2.7 |  |  |  |
| Cc1cc(Cl)cc(NC(=O)Cc2ccc(OC(C)(C)C(=O)O)cc2)c1 [KDD86, reference compound] |  |  |  | 21 | 2.4 | 4.4 |  |  |  |
| CC(C)(Oc1ccc(CC(=O)Nc2ccc3c(c2)CCC3)cc1)C(=O)O [RSR46, reference compound] |  |  |  | 15 | 2.6 | 3 |  |  |  |
